Values of other authors, collected in publication PMC3836577 (Microbial Biotechnology, 2010).
Ends that are not written are not given here.

System: S. aureus Sa113
Conditions: literature value for comparison; ref Peschel et al., 2001

nisin (ITSISLCTPGCKTGALMGCNMKTATCHCSIHVSK; also: lantibiotic thioether rings and dehydrated residues not placed; UniProt P13068 24-57, looked up)
Activity against Sa113 (MIC): 14 µM
